Assay results taken from patent US9469630B2, “Sustained-release formulation for injection” (SUMITOMO DAINIPPON PHARMA CO., LTD., priority 2010, dated 2016).

Experiment: Solubility in water
Type: physicochemical

solubility in water: low
SMILES: Cl.O=C1[C@@H]2[C@H]3CC[C@H](C3)[C@@H]2C(=O)N1C[C@@H]1CCCC[C@H]1CN1CCN(c2nsc3ccccc23)CC1 [Compound 1, N-[4-[4-(1,2-benzisothiazol-3-yl)-1-piperazinyl]-(2R,3R)-2,3-tetramethylene-butyl]-(1′R,2′S,3′R,4′S)-2,3-bicyclo[2,2,1]heptanedicarboximide hydrochloride]
